Data from ChEMBL document CHEMBL1201862, “PubChem BioAssay data set” (2004).
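Cells were grown in 96-well plates and exposed to each compound for 48 hours at five concentrations; endpoints were interpolated linearly between bracketing concentrations, or set to the highest concentration if not reached. The concentration for 50% growth inhibition is given as GI50.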 Active and inactive are the calls of the source. Rule as the data show it: active = GI50 up to about 1.1 µM and inactive = higher.

What was measured:
Assay in all cases: NCI-60 cell line screen, 48 h
CCRF-CEM = test system: CCRF-CEM
EKVX = test system: EKVX
LOX IMVI = test system: LOX IMVI
OVCAR-4 = test system: OVCAR-4
SN12C = test system: SN12C
NCI-H522 = test system: NCI-H522
SW-620 = test system: SW-620
SK-MEL-28 = test system: SK-MEL-28
DLD-1 = test system: DLD-1
NCI-H23 = test system: NCI-H23
K562 = test system: K562
KM-20L2 = test system: KM-20L2
Malme-3M = test system: Malme-3M
SK-MEL-5 = test system: SK-MEL-5
OVCAR-8 = test system: OVCAR-8
CAKI-1 = test system: CAKI-1
UO-31 = test system: UO-31
MOLT-4 = test system: MOLT-4
SK-MEL-2 = test system: SK-MEL-2
786-0 = test system: 786-0
SNB-75 = test system: SNB-75
DMS-114 = test system: DMS-114
OVCAR-5 = test system: OVCAR-5
HCC 2998 = test system: HCC 2998
HOP-92 = test system: HOP-92
HL-60 = test system: HL-60
TK-10 = test system: TK-10
HCT-15 = test system: HCT-15
SF-268 = test system: SF-268
IGROV-1 = test system: IGROV-1
KM12 = test system: KM12
NCI-H226 = test system: NCI-H226
SNB-19 = test system: SNB-19
HT-29 = test system: HT-29
UACC-257 = test system: UACC-257
RXF 631 = test system: RXF 631
RXF 393 = test system: RXF 393
RPMI-8226 = test system: RPMI-8226
M14 = test system: M14
SF-295 = test system: SF-295
A498 = test system: A498
HOP-18 = test system: HOP-18
HCT-116 = test system: HCT-116
SNB-78 = test system: SNB-78
LXFL 529 = test system: LXFL 529
U-251 = test system: U-251
HOP-62 = test system: HOP-62
DMS-273 = test system: DMS-273
NCI-H460 = test system: NCI-H460
M19-MEL = test system: M19-MEL
A549 = test system: A549
OVCAR-3 = test system: OVCAR-3
COLO 205 = test system: COLO 205
UACC-62 = test system: UACC-62
SR = test system: SR
ACHN = test system: ACHN
SK-OV-3 = test system: SK-OV-3

Measured: GI50

Cn1ncc2ccc3[nH]c4ccccc4c(=O)c3c21
inactive: CCRF-CEM 38.3 µM | EKVX 42 µM | LOX IMVI 18.7 µM | OVCAR-4 23.9 µM | SN12C 28.2 µM | NCI-H522 17.5 µM | SW-620 26.2 µM | SK-MEL-28 36.3 µM | DLD-1 27.5 µM | NCI-H23 20.6 µM | K562 31.6 µM | KM-20L2 33.8 µM | Malme-3M 30.1 µM | SK-MEL-5 17.5 µM | OVCAR-8 28.1 µM | CAKI-1 23.4 µM | UO-31 15 µM | MOLT-4 28.9 µM | SK-MEL-2 33.1 µM | 786-0 36.5 µM | SNB-75 19.9 µM | DMS-114 35.8 µM | OVCAR-5 33.6 µM | HCC 2998 31.4 µM | HOP-92 37.8 µM | HL-60 27.9 µM | TK-10 21.1 µM | SF-268 28.4 µM | IGROV-1 39.9 µM | KM12 38.3 µM | NCI-H226 11.6 µM | SNB-19 38.3 µM | HT-29 35 µM | UACC-257 31 µM | RXF 631 21.8 µM | RXF 393 14.7 µM | RPMI-8226 22.5 µM | M14 39.2 µM | SF-295 34.8 µM | A498 22.4 µM | HOP-18 58.5 µM | HCT-116 24.9 µM | SNB-78 27.7 µM | LXFL 529 30 µM | U-251 15.7 µM | HOP-62 26.5 µM | DMS-273 28.6 µM | NCI-H460 28.7 µM | M19-MEL 23.2 µM | A549 20.2 µM | OVCAR-3 37.3 µM | COLO 205 26.4 µM | UACC-62 16.9 µM | SR 29.9 µM | ACHN 22.6 µM | SK-OV-3 50.7 µM
22.9 µM: HCT-15
